Data: patent publication US10285382B2 (priority 2017, dated 2019)
Several values for one entry are separate records, joined by “and”; a condition that tells them apart may be missing. Equal values may be shown once. Read-outs that look alike come from different tables or passages of the source.

Tested on: eggs
[1] = 4 day delta: Day 4 DHP+ versus Day 4 DHP−
[2] = 5 day delta: Day 5 DHP+ versus Day 5 DHP−
[3] = 6 day delta: Day 6 DHP+ versus Day 6 DHP−
[4] = Day 4 DHP+, summary over replicates stored 4 days
[5] = Day 5 DHP+, summary over replicates stored 5 days
[6] = Day 6 DHP+, summary over replicates stored 6 days
[7] = Day 7 DHP+, summary over replicates stored 7 days
[8] = Day 7 Delta: Day 7 DHP+ versus Day 7 DHP−
[9] = Delta: Avg. Trtd versus Avg. Untrd, all storage times
[10] = an additional day (five days) of DHP gas treatment, vs untreated
[11] = eggs treated four days, vs untreated
[12] = seven day storage, vs untreated
[13] = with DHP gas, Mean / Avg. Trtd of 22 replicates, storage 4 to 7 days
[14] = with DHP gas, egg storage 4 days, single replicates of 90 eggs
[15] = with DHP gas, egg storage 5 days, single replicates of 90 eggs
[16] = with DHP gas, egg storage 6 days, single replicates of 90 eggs
[17] = with DHP gas, egg storage 7 days, single replicates of 90 eggs
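Note: paired egg replicates incubated to hatching under standard commercial conditions, then each category scored at hatch as percent of eggs in the replicate.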

Protocol: A total of 22 replicates of 90 eggs each of age matched, flock matched eggs are stored prior to incubation for 4 to 7 days in an on-site egg room at about 20° C. […] The paired replicates are then incubated to hatching under standard commercial conditions. At hatching, the following parameters are assessed and recorded: Total Hatchability (%), Fertile Hatchability (%), % Infertile, Early dead (%), Mid dead (%), Late dead (%), Cracked (%), Contaminated (%), Live pip (%), Dead pip (%), Cull dead chick (%), Chick Weight (g), Chick A (%), and Chick B (%).

OO [DHP, dry hydrogen peroxide]
% Infertile, delta [1]: 0.64% | Chick A, delta [1]: 0.14% | Chick B, delta [1]: −0.14% | Chick Weight, delta [1]: 0.89 g | Cont, delta [1]: 0.00% | Crack, delta [1]: 0.32% | Cull dead cks, delta [1]: 0.00% | Dead pip, delta [1]: −0.16% | Early dead, delta [1]: −0.33% | Fertile Hatchability, delta [1]: 0.12% | Late dead, delta [1]: −0.64% | Live pip, delta [1]: 0.63% | Mid dead, delta [1]: 0.16% | Total Hatchability, delta [1]: −0.64% | % Infertile, delta [2]: 1.84% | Chick A, delta [2]: 1.73% | Chick B, delta [2]: −1.73% | Chick Weight, delta [2]: 0.85 g | Cont, delta [2]: 0.00% | Crack, delta [2]: −0.19% | Cull dead cks, delta [2]: 0.00% | Dead pip, delta [2]: −0.37% | Early dead, delta [2]: −1.70% | Fertile Hatchability, delta [2]: 3.20% | Late dead, delta [2]: −2.05% | Live pip, delta [2]: 0.37% | Mid dead, delta [2]: 0.74% | Total Hatchability, delta [2]: 1.36% | % Infertile, delta [3]: 0.94% | Chick A, delta [3]: −0.57% | Chick B, delta [3]: 0.57% | Chick Weight, delta [3]: 0.49 g | Cont, delta [3]: 0.00% | Crack, delta [3]: 0.00% | Cull dead cks, delta [3]: −0.48% | Dead pip, delta [3]: −0.48% | Early dead, delta [3]: −2.77% | Fertile Hatchability, delta [3]: 4.67% | Late dead, delta [3]: −0.82% | Live pip, delta [3]: −0.16% | Mid dead, delta [3]: 0.48% | Total Hatchability, delta [3]: 2.96% | % Infertile [4]: 2.39% | Chick A [4]: 96.98% | Chick B [4]: 3.02% | Chick Weight [4]: 44.69 g | Cont [4]: 0.00% | Crack [4]: 0.48% | Cull dead cks [4]: 0.00% | Dead pip [4]: 0.16% | Early dead [4]: 4.12% | Fertile Hatchability [4]: 92.21% | Late dead [4]: 1.74% | Live pip [4]: 0.95% | Mid dead [4]: 0.16% | Total Hatchability [4]: 89.99% | % Infertile [5]: 4.44% | Chick A [5]: 98.37% | Chick B [5]: 1.64% | Chick Weight [5]: 44.29 g | Cont [5]: 0.00% | Crack [5]: 0.00% | Cull dead cks [5]: 0.00% | Dead pip [5]: 0.00% | Early dead [5]: 1.85% | Fertile Hatchability [5]: 95.33% | Late dead [5]: 1.11% | Live pip [5]: 0.56% | Mid dead [5]: 0.93% | Total Hatchability [5]: 91.11% | % Infertile [6]: 2.22% | Chick A [6]: 96.88% | Chick B [6]: 3.12% | Chick Weight [6]: 44.30 g | Cont [6]: 0.00% | Crack [6]: 0.00% | Cull dead cks [6]: 0.00% | Dead pip [6]: 0.00% | Early dead [6]: 2.70% | Fertile Hatchability [6]: 94.14% | Late dead [6]: 2.06% | Live pip [6]: 0.16% | Mid dead [6]: 0.79% | Total Hatchability [6]: 92.06% | % Infertile [7]: 0.56% | Chick A [7]: 97.06% | Chick B [7]: 2.94% | Chick Weight [7]: 44.68 g | Cont [7]: 0.00% | Crack [7]: 0.00% | Cull dead cks [7]: 0.56% | Dead pip [7]: 0.00% | Early dead [7]: 1.11% | Fertile Hatchability [7]: 94.98% | Late dead [7]: 1.67% | Live pip [7]: 1.11% | Mid dead [7]: 0.56% | Total Hatchability [7]: 94.44% | % Infertile, delta [8]: 0.00% | Chick A, delta [8]: −1.17% | Chick B, delta [8]: 1.17% | Chick Weight, delta [8]: 1.10 g | Cont, delta [8]: −0.56% | Crack, delta [8]: 0.00% | Cull dead cks, delta [8]: 0.56% | Dead pip, delta [8]: 0.00% | Early dead, delta [8]: −2.78% | Fertile Hatchability, delta [8]: 0.56% | Late dead, delta [8]: 0.55% | Live pip, delta [8]: 1.11% | Mid dead, delta [8]: 0.56% | Total Hatchability, delta [8]: 0.56% | % Infertile, delta [9]: 1.00% | Chick A, delta [9]: 0.23% | Chick B, delta [9]: −0.23% | Chick Weight, delta [9]: 0.77 g | Cont, delta [9]: −0.05% | Crack, delta [9]: 0.05% | Cull dead cks, delta [9]: −0.10% | Dead pip, delta [9]: −0.30% | Early dead, delta [9]: −1.70% | Fertile Hatchability, delta [9]: 2.45% | Late dead, delta [9]: −0.97% | Live pip, delta [9]: 0.35% | Mid dead, delta [9]: 0.45% | Total Hatchability, delta [9]: 1.16% | increase in fertile hatchability [10]: 3.2% | increase in total hatchability [10]: 1.3% | increased weight [10]: 0.85 grams | DHP gas treated eggs observed to be contaminated (at day 7): none | decrease in number of early deaths (death during incubation, vs untreated): about 1.7% | change in fertile hatchability [11]: 0.12% | change in total hatchability [11]: −0.64% | increased weight [11]: 0.89 g | increase of fertile hatchability [12]: 0.56% | increase of total hatchability [12]: 0.56% | increased weight [12]: 1.10 grams | increase of fertile hatchability (six days, vs untreated): 4.67% | increase of total hatchability (six days, vs untreated): 2.96% | increased weight (six days, vs untreated): 0.49 grams | mid cycle deaths (vs untreated): decreased | number of live pip eggs (vs untreated): increases | improvement in number of A grade chicks (vs untreated eggs): 0.23% | increase of average chick weight (vs untreated eggs, on-site storage 4 to 7 days at about 20° C.): 0.77 grams | increase of average chick weight (vs untreated eggs, on-site storage 4 to 7 days, listed as DHP gas): 1.7% and 1.8% | % Infertile [13]: 2.73% | Chick A [13]: 97.34% | Chick B [13]: 2.66% | Chick Weight [13]: 44.46 g | Cont [13]: 0.00% | Crack [13]: 0.15% | Cull dead cks [13]: 0.05% | Dead pip [13]: 0.05% | Early dead [13]: 2.78% | Fertile Hatchability [13]: 93.93% | Late dead [13]: 1.67% | Live pip [13]: 0.61% | Mid dead [13]: 0.61% | Total Hatchability [13]: 91.36% | Cont [14]: 0.00% | Crack [14]: 0.00% (5×) and 1.11% and 2.22% | Cull dead [14]: 0.00% | Dead pip [14]: 0.00% (6×) and 1.11% | Live pip [14]: 1.11% (2×) and 0.00% (4×) and 4.44% | Mid dead [14]: 0.00% (6×) and 1.11% | Cont [15]: 0.00% | Crack [15]: 0.00% | Cull dead [15]: 0.00% | Dead pip [15]: 0.00% | Early dead [15]: 2.22% (2×) and 1.11% (3×) and 3.33% | Late dead [15]: 0.00% (3×) and 2.22% (3×) | Live pip [15]: 0.00% (4×) and 1.11% and 2.22% | Mid dead [15]: 0.00% (2×) and 1.11% (3×) and 2.22% | Cont [16]: 0.00% | Crack [16]: 0.00% | Cull dead [16]: 0.00% | Dead pip [16]: 0.00% | Early dead [16]: 2.22% (5×) and 3.33% and 4.44% | Live pip [16]: 0.00% (6×) and 1.11% | Mid dead [16]: 1.11% (3×) and 0.00% (3×) and 2.22% | % Infer [17]: 1.11% and 0.00% | Chick A [17]: 96.47% and 97.65% | Chick B [17]: 3.53% and 2.35% | Chick Weight [17]: 44.94 g and 44.41 g | Cont [17]: 0.00% | Crack [17]: 0.00% | Cull dead [17]: 1.11% and 0.00% | Dead pip [17]: 0.00% | Early dead [17]: 1.11% | Fertile Hatchblty [17]: 95.51% and 94.44% | Late dead [17]: 2.22% and 1.11% | Live pip [17]: 0.00% and 2.22% | Mid dead [17]: 0.00% and 1.11% | Total Hatchblty [17]: 94.44%
